Results on 8 molecules are retold here after ChEMBL document CHEMBL5257018, “Novel Strategies for the Treatment of Pseudomonas aeruginosa Infections” (J Med Chem, 2016).

A short description of assay [1]: Binding affinity to D-galactose (unknown origin) assessed as dissociation constant.
The nature of assay [2]: Antagonist activity at Pseudomonas aeruginosa MvfR.
A short description of assay [3]: Inhibition of quorum sensing system in Pseudomonas aeruginosa PAO1 assessed as decrease in pqsR expression by PCR analysis.
A short description of assay [4]: Inhibition of Pseudomonas aeruginosa FabI.
Assay [5] deals with T1, Elastase (Pseudomonas aeruginosa (strain ATCC 15692 / PAO1 / 1C / PRS 101 / LMG12228), UniProt P14756). The assay can be described thus: Inhibition of Pseudomonas aeruginosa LasB elastase using aminobenzoyl-Ala-Gly-Leu-Ala-p-nitro-benzyl-amide as substrate b microtiter-based fluorimetric assay.
For assay [6], the target named is T1, Elastase. Briefly: Inhibition of Pseudomonas aeruginosa LasB elastase.
A further assay deals with T2, Hexosaminidase D (Homo sapiens, UniProt Q8WVB3).
T2 sequence (Q8WVB3 whole entry): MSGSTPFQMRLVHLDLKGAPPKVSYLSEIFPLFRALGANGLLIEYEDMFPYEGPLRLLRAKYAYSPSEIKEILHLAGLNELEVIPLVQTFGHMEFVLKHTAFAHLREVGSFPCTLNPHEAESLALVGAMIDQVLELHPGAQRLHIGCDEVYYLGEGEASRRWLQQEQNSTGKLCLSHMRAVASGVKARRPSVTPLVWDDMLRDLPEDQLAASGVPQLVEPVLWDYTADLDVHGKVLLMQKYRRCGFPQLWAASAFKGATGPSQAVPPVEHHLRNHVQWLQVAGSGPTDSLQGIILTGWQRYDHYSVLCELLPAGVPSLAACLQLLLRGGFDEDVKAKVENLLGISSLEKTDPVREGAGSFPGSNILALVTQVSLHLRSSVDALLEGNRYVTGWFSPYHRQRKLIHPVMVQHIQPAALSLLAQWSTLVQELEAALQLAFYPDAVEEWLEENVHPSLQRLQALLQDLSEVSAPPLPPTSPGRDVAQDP
The assay can be described thus: Inhibition of human recombinant beta-hexosaminidase.

Assay [7] deals with T3, Acyl-homoserine lactone acylase PvdQ (Pseudomonas aeruginosa (strain LESB58), UniProt Q9I194).
T3 sequence (Q9I194 whole entry): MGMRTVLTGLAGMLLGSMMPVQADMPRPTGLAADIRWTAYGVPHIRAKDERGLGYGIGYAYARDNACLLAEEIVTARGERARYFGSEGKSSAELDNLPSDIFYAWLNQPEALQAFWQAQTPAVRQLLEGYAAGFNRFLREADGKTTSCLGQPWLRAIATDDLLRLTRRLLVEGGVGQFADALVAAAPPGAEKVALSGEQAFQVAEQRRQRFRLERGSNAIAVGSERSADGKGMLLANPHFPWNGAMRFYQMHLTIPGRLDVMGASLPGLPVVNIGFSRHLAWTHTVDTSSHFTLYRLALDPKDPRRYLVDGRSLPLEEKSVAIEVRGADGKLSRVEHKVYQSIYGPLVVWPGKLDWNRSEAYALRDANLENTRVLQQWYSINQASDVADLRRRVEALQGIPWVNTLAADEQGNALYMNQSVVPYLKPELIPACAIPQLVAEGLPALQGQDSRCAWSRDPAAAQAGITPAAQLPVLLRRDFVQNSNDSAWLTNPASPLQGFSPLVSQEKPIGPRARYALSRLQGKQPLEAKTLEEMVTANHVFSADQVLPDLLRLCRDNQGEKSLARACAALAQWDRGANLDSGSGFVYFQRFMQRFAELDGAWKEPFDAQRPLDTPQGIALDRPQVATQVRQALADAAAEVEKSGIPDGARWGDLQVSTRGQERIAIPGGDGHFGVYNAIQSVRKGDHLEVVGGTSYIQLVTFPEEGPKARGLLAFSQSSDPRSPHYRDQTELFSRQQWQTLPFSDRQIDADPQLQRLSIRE
The assay can be described thus: Inhibition of Pseudomonas aeruginosa ATCC 15692 pvdQ measured after 5 mins.

In assay [8] the target is T3, Acyl-homoserine lactone acylase PvdQ. The assay can be described thus: Inhibition of wild type Pseudomonas aeruginosa PAO1 pvdQ.
For assay [9] the target is unchanged. The assay can be described thus: Competitive inhibition of Pseudomonas aeruginosa ATCC 15692 pvdQ.
Assay [10] has as its system Pseudomonas aeruginosa. The assay can be described thus: Antibiofilm activity against Pseudomonas aeruginosa PA14 assessed as inhibition of biofilm formation at 100 uM. It counts as functional. Set-up: scale not given: the % may be the effect or the level left.
Assay [11] has as its system Pseudomonas aeruginosa. Briefly: Antibiofilm activity against Pseudomonas aeruginosa PAO1 assessed as inhibition of biofilm formation. The assay is classed as functional, organism-based.
For assay [12], the system named is Pseudomonas aeruginosa. The assay can be described thus: Antibiofilm activity against Pseudomonas aeruginosa PA14 assessed as inhibition of biofilm formation. The assay is classed as functional, organism-based.

Structures are written as SMILES.

T1 sequence (P14756 whole entry): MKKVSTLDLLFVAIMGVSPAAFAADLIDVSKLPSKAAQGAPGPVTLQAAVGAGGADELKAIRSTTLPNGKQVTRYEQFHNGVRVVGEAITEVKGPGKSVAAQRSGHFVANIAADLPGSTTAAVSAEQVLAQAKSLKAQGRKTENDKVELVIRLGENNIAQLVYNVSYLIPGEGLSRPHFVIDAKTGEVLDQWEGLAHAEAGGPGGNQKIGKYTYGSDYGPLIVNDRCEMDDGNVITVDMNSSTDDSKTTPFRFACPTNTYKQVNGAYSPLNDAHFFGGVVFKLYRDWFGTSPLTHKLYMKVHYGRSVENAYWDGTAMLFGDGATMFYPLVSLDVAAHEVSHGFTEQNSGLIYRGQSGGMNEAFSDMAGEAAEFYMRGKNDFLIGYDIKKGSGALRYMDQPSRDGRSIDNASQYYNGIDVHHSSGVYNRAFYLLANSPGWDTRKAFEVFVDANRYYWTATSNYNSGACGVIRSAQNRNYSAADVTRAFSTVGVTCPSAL

As a reminder, the Kd is the constant that tells how readily two partners part at equilibrium. Turning to `O=C[C@H](O)[C@@H](O)[C@@H](O)[C@H](O)CO` [GALACTOSE], the Kd in [1] turned out to be 87.5 µM.

In general, IC50 refers to the point on the concentration scale where inhibition reaches its midpoint. Consider `CCCCCCCc1[nH]c2ccc([N+](=O)[O-])cc2c(=O)c1C(N)=O`, for which the results for the IC50 in [2] and in assay [3] were 2 nM and 2000 nM, respectively.

In turn, `Oc1cc(Cl)ccc1Oc1ccc(Cl)cc1Cl` [TRICLOSAN] had an IC50 in assay [4] of 200 nM.

In general, Ki refers to a measure of affinity in units of concentration, obtained from inhibition or displacement. As for `NC(=O)[C@H](Cc1ccc(O)cc1)NC(=O)[C@H](Cc1ccccc1)NC(=O)CS`, affinity on Elastase [5] was put at a Ki of 41 nM. On Elastase [6], the IC50 was determined as 6 µM.

Take `C[C@@H](Oc1ccc(Cl)cc1Cl)C(=O)NCc1ccc2c(c1)OCO2`: the IC50 on Hexosaminidase D was determined as 12.5 µM.

Consider `N#CC(c1ccc(F)cc1)c1cccc(C(F)(F)F)n1` (stereo not drawn), for which the IC50 in assay [7] came to 1900 nM; in [8], 19 µM. Moreover, the Ki in assay [9] amounted to 0.19 nM.

On to `CCCCCCS(=O)(=O)NCCCc1c[nH]c(N)n1`, for which the Activity with Pseudomonas aeruginosa [10] turned out to be 42%.

As for `C/C(=C\c1ccccc1)Cn1cc(CCCCCc2c[nH]c(N)n2)nn1`, the IC50 was found to be 5.6 µM in the assay on Pseudomonas aeruginosa [11] and 530 nM in the assay with Pseudomonas aeruginosa [12].
